Columns and labels:
Assay in all cases: LC/MS/MS identification of proteins from mouse liver extracts labeled with MTS-I-49
Type in all cases: biochemical
[1] = tested on: 3-hydrozy-3-methylglutaryl-coenzyme A-synthase
Source text: (§1) (1991) Irreversible inhibition of serine proteases by peptide derivatives of (alpha-aminoalkyl)phosphonate diphenyl esters. Biochemistry 30, 485-493). However, it has not been used for any proteomic applications. We used MTS-I-49 to label mouse liver extracts and analyze the labeled sample by both SDS-PAGE (FIG. 5B) and by direct chemical cleavage or on bead digestion.
(§2) After enrichment on immobilized avidin, each of the three labeled proteomes (FIG. 5b) was divided into two aliquots. One was prepared for LC-MS/MS analysis by “on bead” digestion, while the other was chemically eluted and digested “in solution.” Proteins identified in each tissue lysate are listed with their accession number and theoretical molecular weight (MW). To compare both approaches, the number of identified peptides and percentage of amino acid sequence coverage is listed for each protein.
(§3) Proteins in the above Table were identified by LC/MS/MS analysis of on bead digested or chemically eluted proteins from mouse liver extracts labeled with MTS-I-49. […] BLAST database searching identified it as liver carboxylesterase 4. A number of additional endogenously biotinylated proteins were identified in the on-bead digested sample.

[2] = target: T1, acetyl-Coenzyme acyltransferase 2 (Mus musculus, UniProt Q8BWT1)
T1 construct: from tissue; host or cells: mouse liver extract
T1 sequence (Q8BWT1 1-397): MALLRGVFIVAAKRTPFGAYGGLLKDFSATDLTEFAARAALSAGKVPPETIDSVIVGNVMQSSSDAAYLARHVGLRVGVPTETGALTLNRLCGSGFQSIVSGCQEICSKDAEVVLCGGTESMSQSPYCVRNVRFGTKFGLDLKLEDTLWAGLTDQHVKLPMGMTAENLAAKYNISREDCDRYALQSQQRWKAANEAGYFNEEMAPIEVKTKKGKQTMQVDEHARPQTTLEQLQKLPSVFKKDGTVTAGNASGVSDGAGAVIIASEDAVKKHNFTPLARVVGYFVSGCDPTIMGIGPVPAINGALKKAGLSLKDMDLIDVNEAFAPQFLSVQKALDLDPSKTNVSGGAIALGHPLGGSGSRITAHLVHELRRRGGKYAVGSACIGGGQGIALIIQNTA
Source text: as §1, §2, §3

[3] = tested on: glutathione-S-transferase
Source text: as §1, §2, §3

[4] = target: T2, glyceraldehyde-3-phosphate dehydrogenase (Mus musculus, UniProt P16858)
T2 construct: from tissue; host or cells: mouse liver extract
T2 sequence (P16858 whole entry): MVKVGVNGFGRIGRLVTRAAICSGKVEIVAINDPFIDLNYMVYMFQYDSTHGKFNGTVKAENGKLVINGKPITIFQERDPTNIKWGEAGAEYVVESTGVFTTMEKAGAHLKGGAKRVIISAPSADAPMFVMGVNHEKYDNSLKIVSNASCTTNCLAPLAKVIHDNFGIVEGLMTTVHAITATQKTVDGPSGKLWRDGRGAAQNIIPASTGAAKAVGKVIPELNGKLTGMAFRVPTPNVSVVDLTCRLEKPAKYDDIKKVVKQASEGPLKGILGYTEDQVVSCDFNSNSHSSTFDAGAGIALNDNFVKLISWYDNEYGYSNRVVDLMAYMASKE
Source text: as §1, §2, §3

[5] = target: T3, methionine adenosyltransferase 1 (Mus musculus, UniProt Q91X83)
T3 construct: from tissue; host or cells: mouse liver extract
T3 sequence (Q91X83 whole entry): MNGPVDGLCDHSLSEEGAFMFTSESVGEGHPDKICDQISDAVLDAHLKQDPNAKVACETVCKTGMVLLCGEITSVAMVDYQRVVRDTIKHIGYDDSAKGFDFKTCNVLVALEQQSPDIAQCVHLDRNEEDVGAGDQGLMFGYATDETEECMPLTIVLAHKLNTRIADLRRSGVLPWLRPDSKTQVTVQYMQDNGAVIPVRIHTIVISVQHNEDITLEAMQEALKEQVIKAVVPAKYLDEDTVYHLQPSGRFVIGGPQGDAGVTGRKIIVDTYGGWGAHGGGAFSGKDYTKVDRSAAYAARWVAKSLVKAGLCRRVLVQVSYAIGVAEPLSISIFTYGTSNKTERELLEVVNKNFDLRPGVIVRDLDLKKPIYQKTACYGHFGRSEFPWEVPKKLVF
Source text: as §1, §2, §3

[6] = target: T4, peroxisomal acyl-CoA oxidase (Mus musculus, UniProt Q9R0H0)
T4 construct: from tissue; host or cells: mouse liver extract
T4 sequence (Q9R0H0 1-661): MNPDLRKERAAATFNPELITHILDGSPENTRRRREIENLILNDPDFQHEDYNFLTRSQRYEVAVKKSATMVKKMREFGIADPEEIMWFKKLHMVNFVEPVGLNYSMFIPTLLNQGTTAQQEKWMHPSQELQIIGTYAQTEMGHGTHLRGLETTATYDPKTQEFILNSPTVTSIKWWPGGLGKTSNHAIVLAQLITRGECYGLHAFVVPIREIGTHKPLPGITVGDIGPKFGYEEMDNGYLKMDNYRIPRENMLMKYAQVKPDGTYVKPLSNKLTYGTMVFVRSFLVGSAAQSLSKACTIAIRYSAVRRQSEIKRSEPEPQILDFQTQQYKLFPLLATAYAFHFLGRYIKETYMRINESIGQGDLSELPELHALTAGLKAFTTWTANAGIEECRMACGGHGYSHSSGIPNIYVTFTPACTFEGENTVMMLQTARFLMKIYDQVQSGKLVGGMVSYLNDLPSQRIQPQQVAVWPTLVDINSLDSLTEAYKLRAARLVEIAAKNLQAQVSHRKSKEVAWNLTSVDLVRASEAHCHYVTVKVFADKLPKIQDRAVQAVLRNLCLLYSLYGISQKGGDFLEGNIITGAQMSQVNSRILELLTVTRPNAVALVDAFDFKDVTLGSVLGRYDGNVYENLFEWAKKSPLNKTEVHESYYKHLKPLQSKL
Source text: as §1, §2, §3

[7] = chemically eluted, digested in solution

With C[C@H](NC(=O)c1ccc(N=Nc2cc(CCNC(=O)CCCC[C@@H]3SC[C@@H]4NC(=O)N[C@@H]43)ccc2O)cc1)C(=O)N[C@@H](C)C(=O)NC(Cc1ccccc1)P(=O)(Oc1ccccc1)Oc1ccccc1 (some centres unmarked) [MTS-I-49] the “Chemical Cleavage, number of identified peptides” value (from here on “Chemical Cleavage, number”) [1, 7] was 0, the “On Bead Digestion, amino acid sequence coverage” value ([1]; on bead digestion) was 6% and the “On Bead Digestion, number of identified peptides” value (“On Bead Digestion, number” below) ([1]; on bead digestion) was 2. For the same compound, the “Chemical Cleavage, amino acid sequence coverage” value [2, 7] was 15%, the “Chemical Cleavage, number” value [2, 7] was 2 and the “On Bead Digestion, amino acid sequence coverage” value ([2]; on bead digestion) was 26%. The “On Bead Digestion, number” value ([2]; on bead digestion) was 5, the “Chemical Cleavage, amino acid sequence coverage” value [3, 7] was 12% and the “Chemical Cleavage, number” value [3, 7] was 2. For the same compound, the “On Bead Digestion, amino acid sequence coverage” value ([3]; on bead digestion) was 44%, the “On Bead Digestion, number” value ([3]; on bead digestion) was 8 and the “Chemical Cleavage, number” value [4, 7] was 0. The “On Bead Digestion, amino acid sequence coverage” value ([4]; on bead digestion) was 10%, the “On Bead Digestion, number” value ([4]; on bead digestion) was 2 and the “Chemical Cleavage, number” value [5, 7] was 0. For the same compound, the “On Bead Digestion, amino acid sequence coverage” value ([5]; on bead digestion) was 9%, the “On Bead Digestion, number” value ([5]; on bead digestion) was 2 and the “Chemical Cleavage, number” value [6, 7] was 0. The “On Bead Digestion, amino acid sequence coverage” value ([6]; on bead digestion) was 4% and the “On Bead Digestion, number” value ([6]; on bead digestion) was 2.
